Measurements taken from PubChem BioAssay (NCI).
Values joined by “and” are separate entries in the source; they are usually repeats but may differ in a detail not shown here. Equal values may be shown once.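 1) Cells in 96-well plates. 2) Compound, 48 h, 5 concentrations. 3) Linear interpolation between surrounding doses. 4) Unreached endpoint = highest concentration. GI50 = concentration required for 50% inhibition of growth. TGI denotes the concentration required for complete inhibition of growth.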

Key:
Experiment in all cases: inhibition of tumour cell growth, NCI panel, 48 h
A549 NSCLC = system: A549 NSCLC
CAKI-1 renal = system: CAKI-1 renal
HCT-15 colon = system: HCT-15 colon
HS 578T breast = system: HS 578T breast
NCI-H522 lung = system: NCI-H522 lung
NCI/ADR-RES ovarian = system: NCI/ADR-RES ovarian
OVCAR-4 ovarian = system: OVCAR-4 ovarian
OVCAR-5 ovarian = system: OVCAR-5 ovarian
T-47D breast = system: T-47D breast
UACC-62 melanoma = system: UACC-62 melanoma

Structure (SMILES)	GI50 (A549 NSCLC)	TGI (A549 NSCLC) [µM]	GI50 (CAKI-1 renal)	TGI (CAKI-1 renal)	GI50 (HCT-15 colon)	TGI (HCT-15 colon) [µM]	GI50 (HS 578T breast) [µM]	TGI (HS 578T breast)	GI50 (NCI-H522 lung)	TGI (NCI-H522 lung)	GI50 (NCI/ADR-RES ovarian)	TGI (NCI/ADR-RES ovarian) [µM]	GI50 (OVCAR-4 ovarian)	TGI (OVCAR-4 ovarian)	GI50 (OVCAR-5 ovarian)	TGI (OVCAR-5 ovarian) [µM]	GI50 (T-47D breast) [µM]	TGI (T-47D breast) [µM]	TGI (UACC-62 melanoma)	GI50 (UACC-62 melanoma)
CN(C)CCCNc1nn2c(=O)c3ccccc3nc2c2ccccc12	5.64 µM	25.2	4.49 µM	25.3 µM	7.05 µM	30.2	3.67	19.9 µM	2.14 µM	24 µM	12.3 µM	35.5	10.4 µM	22.4 µM	12.8 µM	34.3	12.7	33.6		
COc1ccc2cccc(C(=O)c3ccc(C)c4c3CCC4)c2c1		> 100		80.8 µM		53.3				64.1 µM				> 100 µM		> 100			56.5 µM	
CCOC(=O)C1N(S(=O)(=O)c2ccc(C)cc2)CCC12c1ccccc1N(C(C)=O)C2C(/C=C/C(=O)OC)=C/C(=O)OC (centres undefined)		> 100		> 100 µM						> 100 µM				> 100 µM		> 100			> 100 µM	
C/C1=C\[C@H](C)C[C@H](C)OC(=O)C[C@H](c2ccc(O)cc2)NC(=O)[C@@H](Cc2c(Br)[nH]c3ccccc23)N(C)C(=O)[C@H](C)NC(=O)[C@@H](C)C1	0.0318 µM		0.0272 µM	0.2 µM and 0.0985 µM	0.488 µM	6.01	0.0451	0.606 µM and 0.134 µM	0.0344 µM	0.908 µM and 1.13 µM	0.0706 µM	2.02	0.0969 µM	0.95 µM and 3.11 µM	0.261 µM	> 20.3			0.9 µM and 1.44 µM	0.0414 µM
Cc1cc(C)cc(-n2c3nc(=O)n(C)c(=O)c-3nc3ccccc32)c1		70.6		87.3 µM		73				44.2 µM				41.5 µM		93.1			31.5 µM	
C[Si](C)(C)/C=C/CCC(C=O)(CCCl)c1ccccc1 (centres undefined)		98.4				46.1				35.6 µM						97.7			55.5 µM	
c1ccc2c(CNCCCCCCNCc3cccc4ccccc34)cccc2c1		32.3		20.7 µM		19.8				9.78 µM				28.9 µM		29.3			21.6 µM	
O=C(/C=C/c1ccc(C(F)(F)F)cc1)c1ccc(Nc2nc(NCCO)nc(NCCO)n2)cc1	2.91 µM	10.8			3.07 µM	11.3	5.44	54 µM	2.15 µM	6.66 µM	15.2 µM	35	4.29 µM	20.8 µM	2.85 µM	14.1	2.51	11.8	6.03 µM	2.13 µM
Cc1c[nH]c2c1C13CC1CN(C(=O)c1cc4cc(NC(=O)c5cc6ccccc6o5)ccc4[nH]1)C3=CC2=O (centres undefined)	> 1.17 ng/mL		> 1.17 ng/mL	< 0.001 µM	> 1.17 ng/mL	< 0.001			> 1.17 ng/mL	< 0.001 µM	> 1.17 ng/mL		> 1.17 ng/mL	< 0.001 µM	> 1.17 ng/mL	< 0.001			< 0.001 µM	> 1.17 ng/mL
CC#C[C@@]1(O)CCCC[C@@H]1O		> 100				> 100				> 100 µM				> 100 µM					> 100 µM	
Cc1cc(NS(=O)(=O)c2ccc(Nc3c4ccccc4nc4c(C(=O)Nc5ccc(S(=O)(=O)N=C(N)N)cc5)cccc34)cc2)no1		> 100		> 100 µM		> 100				> 100 µM				> 100 µM		> 100			> 100 µM	
O=C1c2ccccc2C(=O)c2c1ccc(C(Br)Br)c2[N+](=O)[O-]	17.6 µM	33.6			1.52 µM	2.93	2.28	6.75 µM	1.84 µM	3.46 µM	2.01 µM	6.56	1.34 µM	2.73 µM	1.72 µM	4.4	1.63	3.89	3.1 µM	1.31 µM
C=CN1C(=O)OC(c2ccccc2)C1c1ccccc1 (centres undefined)	> 100 µM	> 100	> 100 µM	> 100 µM	> 100 µM	> 100			> 100 µM	> 100 µM			> 100 µM	> 100 µM		> 100			> 100 µM	> 100 µM
CC(=O)OCC1OC(OC2C(COC(C)=O)OC(OCCC[S-])C(OC(C)=O)C2OC(C)=O)C(OC(C)=O)C(OC(C)=O)C1OC(C)=O.[Au+].c1ccc(CN2[CH-]N(Cc3ccccc3)C(c3ccccc3)=C2c2ccccc2)cc1 (centres undefined)	4.29 µM	25			3.17 µM	12.2	9.16	87.7 µM	1.72 µM	4.55 µM	19.5 µM	> 100	3.45 µM	22.9 µM	5.67 µM	27	3.28	18.5	8.96 µM	2.63 µM
Nc1nc2c(ncn2C2OC(CO)C(O)C2N)c(=O)[nH]1 (centres undefined)		> 100		> 100 µM		> 100				> 100 µM						> 100			> 100 µM	
COC(=O)C1=C(OC)c2cc3c(cc2C(c2cc(OC)c(OC)c(OC)c2)C1C(=O)OC)OCO3 (centres undefined)		> 100		> 100 µM		> 100								> 100 µM		> 100			> 100 µM	
Cc1ccc2nc3c(C)c(Cl)c(=O)cc-3sc2c1		98.2		> 100 µM		> 100		71.7 µM		> 56.1 µM				> 100 µM		> 95.8		> 100	17.4 µM	
CN(C)C[C@H]1CC[C@@H](CN(C)C)C1=O		> 50	0.297 µM			11		36.6 µM	0.269 µM	0.686 µM and 1.18 µM				16.3 µM		16.3		23.6	16.6 µM	
CC1=NNC(=NCCN(C)C)C/C1=C/c1ccccc1Cl		> 100		> 100 µM		> 100								> 100 µM		> 100			> 100 µM	
Cc1cnc[nH]c1=O		> 100		> 100 µM		> 100				> 100 µM				> 100 µM		> 100			> 100 µM	
